Source: patent US12187723B2 (BRISTOL-MYERS SQUIBB COMPANY, priority 2019, dated 2025)

Legend:
human TLR9 = molecular target: T1, human TLR9 (Homo sapiens, UniProt Q9NR96); assay: TLR9 inhibition reporter assay (HEK-Blue SEAP); type: cell-based; settings: HEK-Blue cells overexpressing human TLR9, ODN2006 5 nM, 22 hour incubation
T1 construct: host or cells: HEK-Blue cells
T1 sequence (Q9NR96 26-1032): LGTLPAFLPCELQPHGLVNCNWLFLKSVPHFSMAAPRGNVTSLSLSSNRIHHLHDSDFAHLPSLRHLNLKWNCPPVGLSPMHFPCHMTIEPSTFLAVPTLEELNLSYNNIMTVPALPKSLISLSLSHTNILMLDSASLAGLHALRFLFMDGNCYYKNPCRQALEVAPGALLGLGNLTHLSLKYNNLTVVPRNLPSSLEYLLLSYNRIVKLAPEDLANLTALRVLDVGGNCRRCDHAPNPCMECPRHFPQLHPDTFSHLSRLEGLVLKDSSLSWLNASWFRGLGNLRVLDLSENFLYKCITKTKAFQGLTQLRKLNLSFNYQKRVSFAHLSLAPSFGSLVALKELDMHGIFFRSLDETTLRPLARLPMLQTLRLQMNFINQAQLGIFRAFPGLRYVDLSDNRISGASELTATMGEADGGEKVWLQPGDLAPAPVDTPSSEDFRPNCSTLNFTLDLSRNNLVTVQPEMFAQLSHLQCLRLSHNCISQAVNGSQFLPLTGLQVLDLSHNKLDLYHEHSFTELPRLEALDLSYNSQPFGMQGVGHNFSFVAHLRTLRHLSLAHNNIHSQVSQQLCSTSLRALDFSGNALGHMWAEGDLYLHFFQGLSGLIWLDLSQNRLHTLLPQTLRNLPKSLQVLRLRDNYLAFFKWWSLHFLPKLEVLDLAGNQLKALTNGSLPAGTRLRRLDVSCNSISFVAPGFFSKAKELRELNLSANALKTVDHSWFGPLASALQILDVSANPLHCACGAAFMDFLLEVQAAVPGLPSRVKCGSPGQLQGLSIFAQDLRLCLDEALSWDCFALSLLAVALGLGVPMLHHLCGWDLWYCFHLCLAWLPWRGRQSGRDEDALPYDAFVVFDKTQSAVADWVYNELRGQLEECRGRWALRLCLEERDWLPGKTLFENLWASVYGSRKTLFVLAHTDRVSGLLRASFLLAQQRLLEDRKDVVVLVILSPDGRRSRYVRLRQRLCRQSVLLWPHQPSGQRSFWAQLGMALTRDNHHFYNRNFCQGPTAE
In short: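 Agonists used: gardiquimod 7.5 μM (TLR7), R848 15.9 μM (TLR8), ODN2006 5 nM (TLR9), added after 30 min room-temperature compound pre-treatment (0.05 nM–50 μM) of receptor-overexpressing HEK-Blue cells. SEAP reporter (NF-κB/AP-1 driven) read after 22 h at 37 °C; inhibition scaled between agonist+DMSO and reference-inhibitor wells.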

human TLR7 = molecular target: T2, human TLR7 (Homo sapiens, UniProt Q9NYK1); assay: TLR7 inhibition reporter assay (HEK-Blue SEAP); type: cell-based; settings: HEK-Blue cells overexpressing human TLR7, gardiquimod 7.5 μM, 22 hour incubation
T2 construct: host or cells: HEK-Blue cells
T2 sequence (Q9NYK1 27-1049): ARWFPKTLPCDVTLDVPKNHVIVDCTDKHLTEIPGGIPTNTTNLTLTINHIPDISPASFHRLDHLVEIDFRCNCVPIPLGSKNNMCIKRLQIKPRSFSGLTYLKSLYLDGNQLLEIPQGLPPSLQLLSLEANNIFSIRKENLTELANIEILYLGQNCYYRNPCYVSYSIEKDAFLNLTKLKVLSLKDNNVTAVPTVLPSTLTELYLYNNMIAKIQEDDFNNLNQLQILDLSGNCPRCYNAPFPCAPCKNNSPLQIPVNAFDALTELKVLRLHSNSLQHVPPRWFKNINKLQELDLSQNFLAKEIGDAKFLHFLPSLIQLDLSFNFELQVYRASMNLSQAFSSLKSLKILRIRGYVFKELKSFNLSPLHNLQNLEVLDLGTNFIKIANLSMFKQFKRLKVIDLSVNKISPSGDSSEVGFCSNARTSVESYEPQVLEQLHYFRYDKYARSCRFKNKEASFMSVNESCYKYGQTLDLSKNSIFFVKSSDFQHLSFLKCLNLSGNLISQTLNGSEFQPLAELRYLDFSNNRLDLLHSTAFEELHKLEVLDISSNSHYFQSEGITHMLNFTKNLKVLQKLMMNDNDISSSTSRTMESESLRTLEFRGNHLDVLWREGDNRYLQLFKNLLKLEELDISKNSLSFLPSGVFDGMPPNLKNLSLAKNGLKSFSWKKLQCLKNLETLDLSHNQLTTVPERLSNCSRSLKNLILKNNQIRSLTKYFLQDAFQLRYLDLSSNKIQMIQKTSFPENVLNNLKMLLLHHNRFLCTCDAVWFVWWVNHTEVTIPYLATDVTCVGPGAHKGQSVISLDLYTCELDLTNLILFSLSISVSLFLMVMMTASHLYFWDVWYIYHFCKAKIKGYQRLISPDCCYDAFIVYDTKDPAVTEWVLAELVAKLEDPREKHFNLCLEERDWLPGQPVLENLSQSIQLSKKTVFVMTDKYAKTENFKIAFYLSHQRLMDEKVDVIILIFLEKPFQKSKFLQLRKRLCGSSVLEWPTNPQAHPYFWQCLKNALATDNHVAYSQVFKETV
In short: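 HEK-Blue reporter cells (15,000/well TLR7, 20,000 TLR8) exposed to compound over 0.05 nM–50 μM, agonist-stimulated (R848 for TLR8, gardiquimod for TLR7), 22 h at 37 °C, 5% CO2. SEAP read with HEK-Blue Detection; % inhibition relative to agonist-plus-DMSO and known-inhibitor controls.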

SMILES | IC50 (human TLR9) | IC50 (human TLR7)
CCC(CC)N1CCC[C@@H](n2c(=O)[nH]c3cc(-c4cc(OC)c5ncnn5c4)c(C)cc32)C1 [Example 67, (R)-5-(8-methoxy-[1,2,4]triazolo[1,5-a]pyridin-6-yl)-6-methyl-1-(1-(pentan-3-yl)piperidin-3-yl)-1,3-dihydro-2H-benzo[d]imidazol-2-one] | 9620 nM | 33 nM
COc1cc(-c2cc3[nH]c(=O)n([C@@H]4CCCN(CCC(F)(F)F)C4)c3cc2C)cn2ncnc12 [Example 68, (R)-5-(8-methoxy-[1,2,4]triazolo[1,5-a]pyridin-6-yl)-6-methyl-1-(1-(3,3,3-trifluoropropyl)piperidin-3-yl)-1,3-dihydro-2H-benzo[d]imidazol-2-one] | 27100 nM | 414 nM
COc1cc(-c2cc3[nH]c(=O)n([C@@H]4CCCN(C5CCOCC5)C4)c3cc2C)cn2ncnc12 [Example 70, (R)-5-(8-methoxy-[1,2,4]triazolo[1,5-a]pyridin-6-yl)-6-methyl-1-(1-(tetrahydro-2H-pyran-4-yl)piperidin-3-yl)-1,3-dihydro-2H-benzo[d]imidazol-2-one] | 17600 nM | 163 nM
COc1cc(-c2cc3[nH]c(=O)n([C@@H]4CCCN(CC(C)(C)C)C4)c3cc2C)cn2ncnc12 [Example 71, (R)-5-(8-methoxy-[1,2,4]triazolo[1,5-a]pyridin-6-yl)-6-methyl-1-(1-neopentylpiperidin-3-yl)-1,3-dihydro-2H-benzo[d]imidazol-2-one] | 29000 nM | 22.5 nM
CCC(CC)CN1CCC[C@@H](n2c(=O)[nH]c3cc(-c4cc(OC)c5ncnn5c4)c(C)cc32)C1 [Example 73, (R)-1-(1-(2-ethylbutyl)piperidin-3-yl)-5-(8-methoxy-[1,2,4]triazolo[1,5-a]pyridin-6-yl)-6-methyl-1,3-dihydro-2H-benzo[d]imidazol-2-one] | 8070 nM | 32.4 nM
COc1cc(-c2ccc3c(c2)[nH]c(=O)n3C2CCN(C)CC2)cn2ncnc12 [Example 74, 5-(8-methoxy-[1,2,4]triazolo[1,5-a]pyridin-6-yl)-1-(1-methylpiperidin-4-yl)-1,3-dihydro-2H-benzo[d]imidazol-2-one] | 365 nM | 948 nM
CCC(CC)CN1CCC(n2c(=O)[nH]c3cc(-c4cc(OC)c5ncnn5c4)ccc32)CC1 [Example 75, 1-(1-(2-ethylbutyl)piperidin-4-yl)-5-(8-methoxy-[1,2,4]triazolo[1,5-a]pyridin-6-yl)-1,3-dihydro-2H-benzo[d]imidazol-2-one] | 2780 nM | 1360 nM

Further lines, results first:

IC50 (human TLR9) | IC50 (human TLR7) | SMILES
7570 nM | 67.1 nM | COc1cc(-c2cc3[nH]c(=O)n([C@H]4CC[C@@H](NC5COC5)CC4)c3cc2C)cn2ncnc12 [Example 59, 5-(8-methoxy-[1,2,4]triazolo[1,5-a]pyridin-6-yl)-6-methyl-1-((1s,4s)-4-(oxetan-3-ylamino)cyclohexyl)-1,3-dihydro-2H-benzo[d]imidazol-2-one]
6540 nM | 27.6 nM | COc1cc(-c2cc3[nH]c(=O)n([C@H]4CC[C@@H](NCC5CC5)CC4)c3cc2C)cn2ncnc12 [Example 60, 1-((1s,4s)-4-((cyclopropylmethyl)amino)cyclohexyl)-5-(8-methoxy-[1,2,4]triazolo[1,5-a]pyridin-6-yl)-6-methyl-1,3-dihydro-2H-benzo[d]imidazol-2-one]
5510 nM | 20.6 nM | COc1cc(-c2cc3[nH]c(=O)n([C@H]4CC[C@@H](NCC(C)C)CC4)c3cc2C)cn2ncnc12 [Example 61, 1-((1s,4s)-4-(isobutylamino)cyclohexyl)-5-(8-methoxy-[1,2,4]triazolo[1,5-a]pyridin-6-yl)-6-methyl-1,3-dihydro-2H-benzo[d]imidazol-2-one]
2350 nM | 12 nM | COc1cc(-c2cc3[nH]c(=O)n([C@H]4CC[C@@H](NC5CCCCC5)CC4)c3cc2C)cn2ncnc12 [Example 62, 1-((1s,4s)-4-(cyclohexylamino)cyclohexyl)-5-(8-methoxy-[1,2,4]triazolo[1,5-a]pyridin-6-yl)-6-methyl-1,3-dihydro-2H-benzo[d]imidazol-2-one]
10000 nM | 45.1 nM | CCN[C@H]1CC[C@@H](n2c(=O)[nH]c3cc(-c4cc(OC)c5ncnn5c4)c(C)cc32)CC1 [Example 63, 1-((1s,4s)-4-(ethylamino)cyclohexyl)-5-(8-methoxy-[1,2,4]triazolo[1,5-a]pyridin-6-yl)-6-methyl-1,3-dihydro-2H-benzo[d]imidazol-2-one]
5490 nM | 6.71 nM | CCCN[C@H]1CC[C@@H](n2c(=O)[nH]c3cc(-c4cc(OC)c5ncnn5c4)c(C)cc32)CC1 [Example 64, 5-(8-methoxy-[1,2,4]triazolo[1,5-a]pyridin-6-yl)-6-methyl-1-((1s,4s)-4-(propylamino)cyclohexyl)-1,3-dihydro-2H-benzo[d]imidazol-2-one]
3440 nM | 10.5 nM | COc1cc(-c2cc3[nH]c(=O)n([C@H]4CC[C@@H](NC5CCCC5)CC4)c3cc2C)cn2ncnc12 [Example 65, 1-((1s,4s)-4-(cyclopentylamino)cyclohexyl)-5-(8-methoxy-[1,2,4]triazolo[1,5-a]pyridin-6-yl)-6-methyl-1,3-dihydro-2H-benzo[d]imidazol-2-one]
2050 nM | 20.8 nM | COc1cc(-c2cc3[nH]c(=O)n([C@H]4CC[C@@H](NCC5CCCCC5)CC4)c3cc2C)cn2ncnc12 [Example 66, 1-((1s,4s)-4-((cyclohexylmethyl)amino)cyclohexyl)-5-(8-methoxy-[1,2,4]triazolo[1,5-a]pyridin-6-yl)-6-methyl-1,3-dihydro-2H-benzo[d]imidazol-2-one]
19300 nM | 96.9 nM | COc1cc(-c2cc3[nH]c(=O)n([C@@H]4CCCN(C5CCC5)C4)c3cc2C)cn2ncnc12 [Example 69, (R)-1-(1-cyclobutylpiperidin-3-yl)-5-(8-methoxy-[1,2,4]triazolo[1,5-a]pyridin-6-yl)-6-methyl-1,3-dihydro-2H-benzo[d]imidazol-2-one]
45800 nM | 676 nM | COc1cc(-c2cc3[nH]c(=O)n([C@@H]4CCCN(C5COC5)C4)c3cc2C)cn2ncnc12 [Example 72, (R)-5-(8-methoxy-[1,2,4]triazolo[1,5-a]pyridin-6-yl)-6-methyl-1-(1-(oxetan-3-yl)piperidin-3-yl)-1,3-dihydro-2H-benzo[d]imidazol-2-one]
